Source: the supplement of paper PMC10307832

Assays:
Experiment in all cases: relative viability (nuclei count vs DMSO), 5 days (fraction); higher = more cells survive
[1] = compound: C1/C(=C\C2=CC=CS2)/C(=O)/C(=C/C3=CC=CS3)/C1 + Cc1cc(Nc2cc(N3CCN(C)CC3)nc(Sc3ccc(NC(=O)C4CC4)cc3)n2)n[nH]1 [Tozasertib] (partner 0.1 µM)
In short: (§1)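 Relative viability equals treated-well nuclei counts divided by vehicle-well nuclei counts. Counts came from 4× images of lung cancer cell lines grown in 1536-well plates for 5 days after pin-tool dosing on the day after seeding. Dosing used one drug alone or a fixed anchor-drug dose plus five library-drug doses (not always all listed) in √10 steps, and values are medians of duplicate plates.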

[2] = compound: C[C@]12O[C@H](C[C@]1(O)CO)n1c3ccccc3c3c4c(c5c6ccccc6n2c5c31)CNC4=O [Lestaurtinib] + CC(C)C[C@H](NC(=O)[C@H](Cc1ccccc1)NC(=O)c1cnccn1)B(O)O [Bortezomib] (partner 0.002 µM)
In short: as §1

[3] = compound: C[C@]12O[C@H](C[C@]1(O)CO)n1c3ccccc3c3c4c(c5c6ccccc6n2c5c31)CNC4=O [Lestaurtinib] + CS(=O)(=O)N1CCN(Cc2cc3nc(-c4cccc5[nH]ncc45)nc(N4CCOCC4)c3s2)CC1 [Pictilisib] (partner 1 µM)
In short: as §1

Lestaurtinib + Olaparib = compound: C[C@]12O[C@H](C[C@]1(O)CO)n1c3ccccc3c3c4c(c5c6ccccc6n2c5c31)CNC4=O [Lestaurtinib] + O=C(c1cc(Cc2n[nH]c(=O)c3ccccc23)ccc1F)N1CCN(C(=O)C2CC2)CC1 [Olaparib] (partner 8 µM)
In short: as §1

Cell Line: EMC-BAC-2
- relative viability ([1]; first compound 0.2 µM): 0.267
- relative viability ([1]; first compound 0.6325 µM): 0.339
- relative viability ([1]; first compound 2 µM): 0.298
- relative viability ([1]; first compound 6.325 µM): 0.293
- relative viability ([1]; first compound 20 µM): 0.48
- relative viability ([2]; first compound 0.005 µM): 1.1
- relative viability ([2]; first compound 0.01581 µM): 1.11
- relative viability ([2]; first compound 0.05 µM): 0.942
- relative viability ([2]; first compound 0.1581 µM): 0.678
- relative viability ([2]; first compound 0.5 µM): 0.279
- relative viability ([3]; first compound 0.005 µM): 0.58
- relative viability ([3]; first compound 0.01581 µM): 0.504
- relative viability ([3]; first compound 0.05 µM): 0.427
- relative viability ([3]; first compound 0.1581 µM): 0.32
- relative viability ([3]; first compound 0.5 µM): 0.239
- relative viability (Lestaurtinib + Olaparib; first compound 0.005 µM): 0.531
- relative viability (Lestaurtinib + Olaparib; first compound 0.01581 µM): 0.466
- relative viability (Lestaurtinib + Olaparib; first compound 0.05 µM): 0.493
- relative viability (Lestaurtinib + Olaparib; first compound 0.1581 µM): 0.356
- relative viability (Lestaurtinib + Olaparib; first compound 0.5 µM): 0.29

Cell Line: LCLC-103H
- relative viability ([1]; first compound 0.2 µM): 0.485
- relative viability ([1]; first compound 0.6325 µM): 0.47
- relative viability ([1]; first compound 2 µM): 0.517
- relative viability ([1]; first compound 6.325 µM): 0.465
- relative viability ([1]; first compound 20 µM): 0.451
- relative viability ([2]; first compound 0.005 µM): 1.09
- relative viability ([2]; first compound 0.01581 µM): 1.07
- relative viability ([2]; first compound 0.05 µM): 0.943
- relative viability ([2]; first compound 0.1581 µM): 0.908
- relative viability ([2]; first compound 0.5 µM): 0.56
- relative viability ([3]; first compound 0.005 µM): 0.61
- relative viability ([3]; first compound 0.01581 µM): 0.623
- relative viability ([3]; first compound 0.05 µM): 0.521
- relative viability ([3]; first compound 0.1581 µM): 0.443
- relative viability ([3]; first compound 0.5 µM): 0.481
- relative viability (Lestaurtinib + Olaparib; first compound 0.005 µM): 0.872
- relative viability (Lestaurtinib + Olaparib; first compound 0.01581 µM): 0.845
- relative viability (Lestaurtinib + Olaparib; first compound 0.05 µM): 0.719
- relative viability (Lestaurtinib + Olaparib; first compound 0.1581 µM): 0.655
- relative viability (Lestaurtinib + Olaparib; first compound 0.5 µM): 0.529

Cell Line: SW 1573
- relative viability ([1]; first compound 0.2 µM): 0.175
- relative viability ([1]; first compound 0.6325 µM): 0.13
- relative viability ([1]; first compound 2 µM): 0.176
- relative viability ([1]; first compound 6.325 µM): 0.158
- relative viability ([1]; first compound 20 µM): 0.139
- relative viability ([2]; first compound 0.005 µM): 1.2
- relative viability ([2]; first compound 0.01581 µM): 1.05
- relative viability ([2]; first compound 0.05 µM): 0.842
- relative viability ([2]; first compound 0.1581 µM): 0.916
- relative viability ([2]; first compound 0.5 µM): 0.727
- relative viability ([3]; first compound 0.005 µM): 0.624
- relative viability ([3]; first compound 0.01581 µM): 0.562
- relative viability ([3]; first compound 0.05 µM): 0.454
- relative viability ([3]; first compound 0.1581 µM): 0.314
- relative viability ([3]; first compound 0.5 µM): 0.174
- relative viability (Lestaurtinib + Olaparib; first compound 0.005 µM): 0.554
- relative viability (Lestaurtinib + Olaparib; first compound 0.01581 µM): 0.567
- relative viability (Lestaurtinib + Olaparib; first compound 0.05 µM): 0.451
- relative viability (Lestaurtinib + Olaparib; first compound 0.1581 µM): 0.383
- relative viability (Lestaurtinib + Olaparib; first compound 0.5 µM): 0.145

Cell Line: NCI-H2405
- relative viability ([1]; first compound 0.2 µM): 0.775
- relative viability ([1]; first compound 0.6325 µM): 0.774
- relative viability ([1]; first compound 2 µM): 0.862
- relative viability ([1]; first compound 6.325 µM): 0.72
- relative viability ([1]; first compound 20 µM): 0.76
- relative viability ([2]; first compound 0.005 µM): 1
- relative viability ([2]; first compound 0.01581 µM): 1.01
- relative viability ([2]; first compound 0.05 µM): 0.883
- relative viability ([2]; first compound 0.1581 µM): 0.977
- relative viability ([2]; first compound 0.5 µM): 0.734
- relative viability ([3]; first compound 0.005 µM): 0.417
- relative viability ([3]; first compound 0.01581 µM): 0.404
- relative viability ([3]; first compound 0.05 µM): 0.356
- relative viability ([3]; first compound 0.1581 µM): 0.345
- relative viability ([3]; first compound 0.5 µM): 0.202
- relative viability (Lestaurtinib + Olaparib; first compound 0.005 µM): 0.98
- relative viability (Lestaurtinib + Olaparib; first compound 0.01581 µM): 1.01
- relative viability (Lestaurtinib + Olaparib; first compound 0.05 µM): 0.913
- relative viability (Lestaurtinib + Olaparib; first compound 0.1581 µM): 0.846
- relative viability (Lestaurtinib + Olaparib; first compound 0.5 µM): 0.486

Cell Line: NCI-H2087
- relative viability ([1]; first compound 0.2 µM): 0.404
- relative viability ([1]; first compound 0.6325 µM): 0.257
- relative viability ([1]; first compound 2 µM): 0.257
- relative viability ([1]; first compound 6.325 µM): 0.201
- relative viability ([1]; first compound 20 µM): 0.225
- relative viability ([2]; first compound 0.005 µM): 0.882
- relative viability ([2]; first compound 0.01581 µM): 0.936
- relative viability ([2]; first compound 0.05 µM): 0.745
- relative viability ([2]; first compound 0.1581 µM): 0.764
- relative viability ([2]; first compound 0.5 µM): 0.354
- relative viability ([3]; first compound 0.005 µM): 0.872
- relative viability ([3]; first compound 0.01581 µM): 0.745
- relative viability ([3]; first compound 0.05 µM): 0.53
- relative viability ([3]; first compound 0.1581 µM): 0.689
- relative viability ([3]; first compound 0.5 µM): 0.322
- relative viability (Lestaurtinib + Olaparib; first compound 0.005 µM): 0.589
- relative viability (Lestaurtinib + Olaparib; first compound 0.01581 µM): 0.725
- relative viability (Lestaurtinib + Olaparib; first compound 0.05 µM): 0.559
- relative viability (Lestaurtinib + Olaparib; first compound 0.1581 µM): 0.673
- relative viability (Lestaurtinib + Olaparib; first compound 0.5 µM): 0.309

Cell Line: NCI-H460
- relative viability ([1]; first compound 0.2 µM): 0.377
- relative viability ([1]; first compound 0.6325 µM): 0.438
- relative viability ([1]; first compound 2 µM): 0.401
- relative viability ([1]; first compound 6.325 µM): 0.323
- relative viability ([1]; first compound 20 µM): 0.321
- relative viability ([2]; first compound 0.005 µM): 1.08
- relative viability ([2]; first compound 0.01581 µM): 1.35
- relative viability ([2]; first compound 0.05 µM): 0.926
- relative viability ([2]; first compound 0.1581 µM): 1.44
- relative viability ([2]; first compound 0.5 µM): 0.84
- relative viability ([3]; first compound 0.005 µM): 0.315
- relative viability ([3]; first compound 0.01581 µM): 0.392
- relative viability ([3]; first compound 0.05 µM): 0.298
- relative viability ([3]; first compound 0.1581 µM): 0.224
- relative viability ([3]; first compound 0.5 µM): 0.201
- relative viability (Lestaurtinib + Olaparib; first compound 0.005 µM): 0.511
- relative viability (Lestaurtinib + Olaparib; first compound 0.01581 µM): 0.532
- relative viability (Lestaurtinib + Olaparib; first compound 0.05 µM): 0.449
- relative viability (Lestaurtinib + Olaparib; first compound 0.1581 µM): 0.516
- relative viability (Lestaurtinib + Olaparib; first compound 0.5 µM): 0.429

Cell Line: LOU-NH91
- relative viability ([1]; first compound 0.2 µM): 0.755
- relative viability ([1]; first compound 0.6325 µM): 0.705
- relative viability ([1]; first compound 2 µM): 0.657
- relative viability ([1]; first compound 6.325 µM): 0.604
- relative viability ([1]; first compound 20 µM): 0.596
- relative viability ([2]; first compound 0.005 µM): 0.486
- relative viability ([2]; first compound 0.01581 µM): 0.549
- relative viability ([2]; first compound 0.05 µM): 0.53
- relative viability ([2]; first compound 0.1581 µM): 0.511
- relative viability ([2]; first compound 0.5 µM): 0.373
- relative viability ([3]; first compound 0.005 µM): 0.539
- relative viability ([3]; first compound 0.01581 µM): 0.482
- relative viability ([3]; first compound 0.05 µM): 0.517
- relative viability ([3]; first compound 0.1581 µM): 0.444
- relative viability ([3]; first compound 0.5 µM): 0.314
- relative viability (Lestaurtinib + Olaparib; first compound 0.005 µM): 0.894
- relative viability (Lestaurtinib + Olaparib; first compound 0.01581 µM): 0.903
- relative viability (Lestaurtinib + Olaparib; first compound 0.05 µM): 0.89
- relative viability (Lestaurtinib + Olaparib; first compound 0.1581 µM): 0.712
- relative viability (Lestaurtinib + Olaparib; first compound 0.5 µM): 0.531

Cell Line: NCI-H1651
- relative viability ([1]; first compound 0.2 µM): 0.731
- relative viability ([1]; first compound 0.6325 µM): 0.671
- relative viability ([1]; first compound 2 µM): 0.837
- relative viability ([1]; first compound 6.325 µM): 0.596
- relative viability ([1]; first compound 20 µM): 0.718
- relative viability ([2]; first compound 0.005 µM): 0.878
- relative viability ([2]; first compound 0.01581 µM): 1.07
- relative viability ([2]; first compound 0.05 µM): 0.883
- relative viability ([2]; first compound 0.1581 µM): 1.03
- relative viability ([2]; first compound 0.5 µM): 0.648
- relative viability ([3]; first compound 0.005 µM): 0.59
- relative viability ([3]; first compound 0.01581 µM): 0.736
- relative viability ([3]; first compound 0.05 µM): 0.309
- relative viability ([3]; first compound 0.1581 µM): 0.542
- relative viability ([3]; first compound 0.5 µM): 0.286
- relative viability (Lestaurtinib + Olaparib; first compound 0.005 µM): 0.166
- relative viability (Lestaurtinib + Olaparib; first compound 0.01581 µM): 0.199
- relative viability (Lestaurtinib + Olaparib; first compound 0.05 µM): 0.17
- relative viability (Lestaurtinib + Olaparib; first compound 0.1581 µM): 0.169
- relative viability (Lestaurtinib + Olaparib; first compound 0.5 µM): 0.147

Cell Line: NCI-H441
- relative viability ([1]; first compound 0.2 µM): 0.657
- relative viability ([1]; first compound 0.6325 µM): 0.614
- relative viability ([1]; first compound 2 µM): 0.613
- relative viability ([1]; first compound 6.325 µM): 0.631
- relative viability ([1]; first compound 20 µM): 0.528
- relative viability ([2]; first compound 0.005 µM): 0.4
- relative viability ([2]; first compound 0.01581 µM): 0.618
- relative viability ([2]; first compound 0.05 µM): 0.603
- relative viability ([2]; first compound 0.1581 µM): 0.295
- relative viability ([2]; first compound 0.5 µM): 0.367
- relative viability ([3]; first compound 0.005 µM): 0.346
- relative viability ([3]; first compound 0.01581 µM): 0.342
- relative viability ([3]; first compound 0.05 µM): 0.215
- relative viability ([3]; first compound 0.1581 µM): 0.299
- relative viability ([3]; first compound 0.5 µM): 0.171
- relative viability (Lestaurtinib + Olaparib; first compound 0.005 µM): 0.557
- relative viability (Lestaurtinib + Olaparib; first compound 0.01581 µM): 0.513
- relative viability (Lestaurtinib + Olaparib; first compound 0.05 µM): 0.495
- relative viability (Lestaurtinib + Olaparib; first compound 0.1581 µM): 0.48
- relative viability (Lestaurtinib + Olaparib; first compound 0.5 µM): 0.379
